According to patent publication US9938292B2 (GUANGDONG ZHONGSHENG PHARMACEUTICAL CO., LTD, priority 2014, dated 2018):

Test system: Hedgehog signaling pathway
Test: Gli-Luc luciferase reporter gene assay in C3H10T1/2/Gli-Luc cells under Shh-N stimulation
Format: cell-based
Conditions: 24 h, luciferase RLU, read-out: biological activity: IC50 of the inhibitory activities of compounds on the hedgehog pathway
How it was run: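 IC50 derived by curve fitting of luciferase RLU against log compound concentration. Stable C3H10T1/2/Gli-Luc cells, seeded overnight, were co-treated 24 h with serially diluted compound (7 points, duplicate wells) and 30 nM Shh-N-containing HEK293 conditioned medium before lysis and luminescence readout.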

Question: How did the IC50 turn out when `COc1c(-c2cnc(N3C[C@@H](C)O[C@@H](C)C3)cc2C)cnc2c(-c3ccc(C#N)cc3)cccc12` [Embodiment 167] was run?
Answer: ≤ 50 nM

Same assay, conditions: Mus musculus, C3H 10T1/2, 24 h, luciferase RLU, read-out: biological activity: IC50 of the inhibitory activities of compounds on the hedgehog pathway

Question: `CCc1c(-c2ccc(N3C[C@@H](C)O[C@@H](C)C3)nc2)cnc2c(-c3ccc(C#N)cc3)cccc12` [Embodiment 133] was tested. Which IC50 did it give?
Answer: ≤ 50 nM

Question: How did the IC50 turn out when `C[C@@H]1CN(c2ccc(-c3cnc4c(-c5ccc(C#N)cc5)cccc4c3C3CC3)cn2)C[C@H](C)O1` [Embodiment 134] was run?
Answer: ≤ 50 nM

Question: For `COc1c(-c2ccc(N3C[C@@H](C)O[C@@H](C)C3)cc2)cnc2c(-c3ccc(C#N)cc3)cc(Cl)cc12` [Embodiment 135, 4-(6-chloro-3-(4-((2S,6R)-2,6-dimethylmorpholino)phenyl)-4-methoxyquinolin-8-yl) benzonitrile], which IC50 is on record?
Answer: 100 to 500 nM

Question: `COc1c(-c2ccc(N3CC(C)OC(C)C3)cc2)cnc2c(-c3ccc(C#N)cc3)cc(F)cc12` (stereo not shown) [Embodiment 136, 4-(3-(4-(2,6-dimethylmorpholino)phenyl)-6-fluoro-4-methoxyquinolin-8-yl) benzonitrile] was tested. Which IC50 did it give?
Answer: 50 to 100 nM

Question: Which IC50 does the source give for `COc1c(-c2ccc(N3C[C@@H](C)O[C@@H](C)C3)cc2)cnc2c(-c3ccc(OC(F)(F)F)cc3)cc(F)cc12` [Embodiment 137] here?
Answer: 100 to 500 nM

Question: How did the IC50 turn out when `COc1c(-c2ccc(N3C[C@@H](C)O[C@@H](C)C3)cc2)cnc2c(-c3ccc(C#N)cc3)ccc(F)c12` [Embodiment 138] was run?
Answer: ≤ 50 nM

Question: For `C[C@@H]1CN(c2ccc(-c3cnc4c(-c5ccc(C#N)cc5)cccc4c3N3CCC3)cn2)C[C@H](C)O1` [Embodiment 139, 4-(4-(azetidin-1-yl)-3-(6-((2S,6R)-2,6-dimethylmorpholino)pyridin-3-yl)quinolin-8-yl) benzonitrile], which IC50 is on record?
Answer: 50 to 100 nM

Question: `CCC(=O)N1[C@H](C)CN(c2ccc(-c3cnc4c(-c5ccc(C#N)cc5)cccc4c3O)cn2)C[C@@H]1C` [Embodiment 140, 4-(3-(6-((3S,5R)-3,5-dimethyl-4-propionylpiperazin-1-yl)pyridin-3-yl)-4-hydroxyquinolin-8-yl)benzonitrile] was tested. Which IC50 did it give?
Answer: 500 to 1000 nM

Question: How did the IC50 turn out when `COc1c(-c2ccc(N3C[C@@H](C)O[C@@H](C)C3)cc2)c(C(F)(F)F)nc2c(-c3ccc(C#N)cc3)cccc12` [Embodiment 141, 4-(3-(4-((2S,6R)-2,6-dimethylmorpholino)phenyl)-4-methoxy-2-(trifluoromethyl)quinolin-8-yl)benzonitrile] was run?
Answer: 100 to 500 nM

Question: Which IC50 does the source give for `COc1cc(-c2ccc(N3C[C@@H](C)O[C@@H](C)C3)cc2)nc2cccc(-c3ccc(C#N)cc3)c12` [Embodiment 142, 4-(2-(4-((2R,6S)-2,6-dimethylmorpholino)phenyl)-4-methoxyquinolin-5-yl) benzonitrile] here?
Answer: 500 to 1000 nM

Question: Which IC50 does the source give for `CCOc1c(-c2ccc(N3C[C@@H](C)O[C@@H](C)C3)cc2)cnc2c(-c3ccc(C#N)cc3)cccc12` [Embodiment 143, 4-(3-(4-((2S,6R)-2,6-dimethylmorpholino)phenyl)-4-ethoxyquinolin-8-yl)benzonitrile] here?
Answer: ≤ 50 nM

Question: With `CC(C)Oc1c(-c2ccc(N3C[C@@H](C)O[C@@H](C)C3)cc2)cnc2c(-c3ccc(C#N)cc3)cccc12` [Embodiment 144] as the compound, how does the IC50 read?
Answer: 100 to 500 nM

Question: `C[C@@H]1CN(c2ccc(-c3cnc4c(-c5ccc(C#N)cc5)cccc4c3OC(F)F)cc2)C[C@H](C)O1` [Embodiment 145] was tested. Which IC50 did it give?
Answer: ≤ 50 nM

Question: With `C[C@@H]1CN(c2ccc(-c3cnc4c(-c5ccc(C#N)cc5)cccc4c3OCCN(C)C)cc2)C[C@H](C)O1` [Embodiment 146] as the compound, how does the IC50 read?
Answer: 500 to 1000 nM

Question: How did the IC50 turn out when `COc1c(-c2ccc(N3C[C@@H](C)O[C@@H](C)C3)cc2)cnc2c(-c3ccc(C#N)cc3)ccnc12` [Embodiment 147, 4-(7-(4-((2S,6R)-2,6-dimethylmorpholino)phenyl)-8-methoxy-1,5-naphthyridin-4-yl) benzonitrile] was run?
Answer: 100 to 500 nM

Question: With `COc1c(-c2ccc(N3C[C@@H](C)O[C@@H](C)C3)cc2)cnc2c(-c3ccc(C#N)cc3)nccc12` [Embodiment 148, 4-(3-(4-((2S,6R)-2,6-dimethylmorpholino)phenyl)-4-methoxy-1,7-naphthyridin-8-yl) benzonitrile] as the compound, how does the IC50 read?
Answer: 50 to 100 nM

Question: How did the IC50 turn out when `CCC(=O)N1[C@H](C)CN(c2ccc(-c3cnc4c(-c5ccc(C#N)cc5)nccc4c3OC)cn2)C[C@@H]1C` [Embodiment 149, 4-(3-(6-((3S,5R)-3,5-dimethyl-4-propionylpiperazizin-1-yl)pyridin-3-yl)-4-methoxy-1,7-naphthyridin-8-yl)benzonitrile] was run?
Answer: ≤ 50 nM

Question: For `C[C@@H]1CN(c2ccc(-c3c([O-])c4cccc(-c5ccc(C#N)cc5)c4n[n+]3C)cc2)C[C@H](C)O1` [Embodiment 150, 8-(4-cyanophenyl)-3-(4-((2R,6S)-2,6-dimethylmorpholino)phenyl)-2-methylcinnolin-2-ium-4-olate], which IC50 is on record?
Answer: 500 to 1000 nM

Question: `CCC(=O)N1[C@H](C)CN(c2ccc(-c3nnc4c(-c5ccc(C#N)cc5)cccc4c3OC)cn2)C[C@@H]1C` [Embodiment 151, 4-(3-(6-(3,5-dimethyl-4-propionylpiperazin-1-yl)pyridin-3-yl)-4-methoxycinnolin-8-yl)benzonitrile] was tested. Which IC50 did it give?
Answer: ≤ 50 nM

Question: How did the IC50 turn out when `COc1c(-c2ccc(N3C[C@@H](C)O[C@@H](C)C3)cc2)nnc2c(-c3ccc(C#N)cc3)cccc12` [Embodiment 152, 4-(3-(4-((2R,6S)-2,6-dimethylmorpholino)phenyl)-4-methoxycinnolin-8-yl) benzonitrile] was run?
Answer: ≤ 50 nM

Question: Which IC50 does the source give for `C[C@@H]1CN(c2ccc(-c3cnc4c(-c5ccc(C#N)cc5)cncc4c3Cl)cc2)C[C@H](C)O1` [Embodiment 153, 4-(4-chloro-3-(4-((2S,6R)-2,6-dimethylmorpholino)phenyl)-1,6-naphthyridin-8-yl) benzonitrile] here?
Answer: 100 to 500 nM

Question: With `C[C@@H]1CN(c2ccc(-c3cnc4c(-c5ccc(C#N)cc5)cncc4c3N(C)C)cc2)C[C@H](C)O1` [Embodiment 155, 4-(4-(dimethylamino)-3-(4-((2S,6R)-2,6-dimethylmorpholino)phenyl)-1,6-naphthyridin-8-yl)benzonitrile] as the compound, how does the IC50 read?
Answer: 100 to 500 nM

Question: `COc1c(-c2ccc(N3C[C@@H](C)O[C@@H](C)C3)cc2)cnc2c1CCCC2(O)c1ccc(C#N)cc1` (stereo partly drawn) [Embodiment 156, 4-(3-(4-((2S,6R)-2,6-dimethylmorpholino)phenyl)-8-hydroxy-4-methoxy-5,6,7,8-tetra hydroquinolin-8-yl)benzonitrile] was tested. Which IC50 did it give?
Answer: 500 to 1000 nM

Question: How did the IC50 turn out when `COc1c(-c2ccc(N3C[C@@H](C)O[C@@H](C)C3)cc2)cnc2c1CCCC2(OC)c1ccc(C#N)cc1` (stereo partly drawn) [Embodiment 157, 4-(3-(4-((2S,6R)-2,6-dimethylmorpholino)phenyl)-4,8-dimethoxy-5,6,7,8-tetrahydroquinolin-8-yl)benzonitrile] was run?
Answer: 1000 to 5000 nM

Question: With `COc1c(-c2ccc(N3C[C@@H](C)O[C@@H](C)C3)nc2)cnc2c(-c3ccc(C#N)cc3)cccc12` [Embodiment 158, 4-(3-(6-((2S,6R)-2,6-dimethylmorpholino)pyridin-3-yl)-4-methoxyquinolin-8-yl) benzonitrile] as the compound, how does the IC50 read?
Answer: ≤ 50 nM

Question: For `COc1c(-c2ccc(N3C[C@@H](C)O[C@@H](C)C3)nc2)cnc2c(-c3ccc(C(F)(F)F)cc3)cccc12` [Embodiment 159], which IC50 is on record?
Answer: ≤ 50 nM

Question: `COc1c(-c2ccc(N3C[C@@H](C)O[C@@H](C)C3)nc2)cnc2c(-c3ccc(OC(F)(F)F)cc3)cccc12` [Embodiment 160] was tested. Which IC50 did it give?
Answer: ≤ 50 nM

Question: With `COc1c(-c2ccc(N3C[C@@H](C)O[C@@H](C)C3)nc2)cnc2c(-c3ccc(S(C)(=O)=O)cc3)cccc12` [Embodiment 161] as the compound, how does the IC50 read?
Answer: ≤ 50 nM

Question: `COc1c(-c2ccc(N3C[C@@H](C)O[C@@H](C)C3)nc2)cnc2c(-c3ccccc3)cccc12` [Embodiment 162] was tested. Which IC50 did it give?
Answer: ≤ 50 nM

Question: `COc1c(-c2ccc(N3C[C@@H](C)O[C@@H](C)C3)nc2)cnc2c(-c3ccc(C)nc3)cccc12` [Embodiment 163] was tested. Which IC50 did it give?
Answer: 100 to 500 nM

Question: `COc1c(-c2ccc(N3C[C@@H](C)O[C@@H](C)C3)nc2)cnc2c(-c3ccc(C(C)C)nc3Cl)cccc12` [Embodiment 164] was tested. Which IC50 did it give?
Answer: 100 to 500 nM

Question: Which IC50 does the source give for `COc1c(-c2ccc(N3C[C@@H](C)O[C@@H](C)C3)nc2)cnc2c(-c3ccnn3C)cccc12` [Embodiment 165] here?
Answer: 100 to 500 nM

Question: `COc1c(-c2ccc(N3C[C@@H](C)O[C@@H](C)C3)nc2C)cnc2c(-c3ccc(C#N)cc3)cccc12` [Embodiment 166, 4-(3-(6-((2S,6R)-2,6-dimethylmorpholino)-2-methylpyridin-3-yl)-4-methoxyquinolin-8-yl)benzonitrile] was tested. Which IC50 did it give?
Answer: ≤ 50 nM

Question: Which IC50 does the source give for `COc1c(-c2ccc(N3C[C@@H](C)O[C@@H](C)C3)cc2F)cnc2c(-c3ccc(C#N)cc3)cccc12` [Embodiment 168, 4-(3-(4-((2S,6R)-2,6-dimethylmorpholino)-2-fluorophenyl)-4-methoxyquinolin-8-yl) benzonitrile] here?
Answer: ≤ 50 nM

Question: Which IC50 does the source give for `COc1c(-c2ccc(N3C[C@@H](C)O[C@@H](C)C3)cc2C)cnc2c(-c3ccc(C#N)cc3)cccc12` [Embodiment 169] here?
Answer: ≤ 50 nM

Question: `COc1c(-c2ccc(N3C[C@@H](C)O[C@@H](C)C3)cc2Cl)cnc2c(-c3ccc(C#N)cc3)cccc12` [Embodiment 170] was tested. Which IC50 did it give?
Answer: ≤ 50 nM

Question: For `COc1c(-c2ccc(N3C[C@@H](C)O[C@@H](C)C3)cn2)cnc2c(-c3ccc(C#N)cc3)cccc12` [Embodiment 171], which IC50 is on record?
Answer: ≤ 50 nM

Question: `COc1c(-c2ccc(N3C[C@@H](C)O[C@@H](C)C3)c(F)c2)cnc2c(-c3ccc(C#N)cc3)cccc12` [Embodiment 172] was tested. Which IC50 did it give?
Answer: ≤ 50 nM

Question: `COc1c(-c2ccc(N3C[C@@H](C)O[C@@H](C)C3)c(Cl)c2)cnc2c(-c3ccc(C#N)cc3)cccc12` [Embodiment 173] was tested. Which IC50 did it give?
Answer: 100 to 500 nM

Question: `COc1c(-c2ccc(N3C[C@@H](C)O[C@@H](C)C3)c(C)c2)cnc2c(-c3ccc(C#N)cc3)cccc12` [Embodiment 174] was tested. Which IC50 did it give?
Answer: 100 to 500 nM

Question: Which IC50 does the source give for `COc1c(-c2ccc(N3C[C@@H](C)O[C@@H](C)C3)nn2)cnc2c(-c3ccc(C#N)cc3)cccc12` [Embodiment 175, 4-(3-(6-((2S,6R)-2,6-dimethylmorpholino)pyridazin-3-yl)-4-methoxyquinolin-8-yl) benzonitrile] here?
Answer: 100 to 500 nM

Question: `COc1c(-c2cnc(N3C[C@@H](C)O[C@@H](C)C3)nc2)cnc2c(-c3ccc(C#N)cc3)cccc12` [Embodiment 176, 4-(3-(2-((2S,6R)-2,6-dimethylmorpholino)pyrimidin-5-yl)-4-methoxyquinolin-8-yl) benzonitrile] was tested. Which IC50 did it give?
Answer: ≤ 50 nM
